The supplement of paper PMC11919725

Experiments:
Jurkat [1] = assay: metabolic activity relative to DMSO, 18 h (ratio); higher = more viable
How it was run: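 Metabolic activity values are normalised to the average of vehicle control wells. They come from Jurkat or primary CD4+/CD8+ T cells (naive, or activated 48 h with CD3/CD28 Dynabeads) treated for 18 h at 37 °C, 5% CO2 with compound over 1 nM–10 µM in log10 steps. Then 100 µl of each suspension was mixed in 96-well plates with alamarBlue (10% v/v final), and fluorescence at 544 nm excitation and 584 nm emission was recorded on a FluoStar Omega 3.5 h later.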

Jurkat [2] = assay: cytotoxicity relative to DMSO, 18 h (ratio); higher = less cell death (drugs called cytotoxic fall below 1)
How it was run: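 Jurkat or primary CD4+/CD8+ T cells (naive, or activated 48 h with CD3/CD28 Dynabeads) were treated 18 h with compound at 1 nM–10 µM (log10 steps) at 37 °C, 5% CO2. Then 100 µl of suspension went into 96-well plates with IncuCyte Cytotox Dye (250 nM final). Cytotoxicity came from IncuCyte fluorescence imaging (×10, five images per well, hourly over 3 h). Signals were corrected for confluency, then normalised to mean DMSO controls.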

Jurkat [3] = assay: confluency relative to DMSO, 18 h (ratio); higher = more viable
How it was run: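 Jurkat cells or primary CD4+/CD8+ T cells, either naive or activated for 48 h with CD3/CD28 Dynabeads, were exposed to compound from 1 nM to 10 µM in log10 steps for 18 h at 37 °C and 5% CO2. Afterwards, 100 µl of each suspension was moved into 96-well plates containing IncuCyte Cytotox Dye and alamarBlue. Phase-contrast images were taken at ×10, five per well, every hour for 3 h. Confluency was derived from these images with the IncuCyte Basic Analyzer, and values are expressed relative to the mean of the control wells.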

| SMILES | metabolic activity (Jurkat [1]; 1 nM) | metabolic activity (Jurkat [1]; 10 nM) | metabolic activity (Jurkat [1]; 100 nM) | metabolic activity (Jurkat [1]; 1000 nM) | metabolic activity (Jurkat [1]; 10000 nM) | cytotoxicity (Jurkat [2]; 1 nM) | cytotoxicity (Jurkat [2]; 10 nM) | cytotoxicity (Jurkat [2]; 100 nM) | cytotoxicity (Jurkat [2]; 1000 nM) | cytotoxicity (Jurkat [2]; 10000 nM) | confluency (Jurkat [3]; 1 nM) | confluency (Jurkat [3]; 10 nM) | confluency (Jurkat [3]; 100 nM) | confluency (Jurkat [3]; 1000 nM) | confluency (Jurkat [3]; 10000 nM) |
| --- | --- | --- | --- | --- | --- | --- | --- | --- | --- | --- | --- | --- | --- | --- | --- |
| O=C(C=Cc1cccc(S(=O)(=O)Nc2ccccc2)c1)NO [Belinostat] | 0.982 | 1.06 | 1.09 | 0.811 | 0.635 | 1.08 | 1.14 | 1.07 | 1.18 | 0.932 | 1.04 | 1.07 | 0.966 | 1.02 | 0.87 |
| Cn1cnc2c(F)c(Nc3ccc(Br)cc3F)c(C(=O)NOCCO)cc21 [Binimetinib] | 1.13 | 1.12 | 0.989 | 0.909 | 0.933 | 1.13 | 1.22 | 1 | 0.926 | 0.948 | 1 | 1.01 | 0.975 | 0.959 | 0.989 |
| CC(C)CC(NC(=O)C(Cc1ccccc1)NC(=O)c1cnccn1)B(O)O (stereo not given) [Bortezomib] | 1.2 | 1.13 | 0.556 | 0.181 | 0.149 | 1.02 | 0.944 | 0.569 | 0.531 | 0.539 | 0.99 | 0.969 | 0.721 | 0.934 | 0.951 |
| COc1cc(N2CCC(N3CCN(C)CC3)CC2)ccc1Nc1ncc(Cl)c(Nc2ccccc2P(C)(C)=O)n1 [Brigatinib] | 0.883 | 0.946 | 0.911 | 0.83 | 0.766 | 0.701 | 0.654 | 0.641 | 0.614 | 0.565 | 0.851 | 1.08 | 1.14 | 1.13 | 1.07 |
| CCOC(=O)Nc1cc(-c2ccc(C)c(NS(C)(=O)=O)c2)nn2c(C)nnc12 [Bromosporine] | 0.994 | 0.938 | 0.79 | 0.846 | 0.811 | 0.92 | 0.952 | 0.977 | 1.19 | 1.11 | 0.963 | 1 | 1.02 | 1.2 | 1.18 |
| Nc1cc(C(F)(F)F)c(-c2cc(N3CCOCC3)nc(N3CCOCC3)n2)cn1 [Buparlisib] | 0.939 | 0.925 | 0.834 | 0.742 | 0.377 | 1.03 | 1.06 | 0.975 | 0.987 | 0.6 | 1.04 | 1.05 | 0.999 | 1.02 | 0.756 |
| O=c1cc(-c2ccccc2F)[nH]c2cc3c(cc12)OCO3 [CHM-1] | 1.02 | 1.07 | 0.992 | 0.688 | 0.704 | 0.961 | 0.929 | 0.919 | 0.618 | 0.461 | 0.973 | 0.963 | 0.976 | 0.71 | 0.588 |
| O=C(O)C1(C(=O)O)CCC1.[NH2-].[NH2-].[Pt+2] [Carboplatin] | 0.863 | 0.781 | 0.818 | 0.83 | 0.819 | 0.95 | 1.07 | 0.984 | 0.993 | 0.905 | 0.969 | 0.997 | 0.974 | 0.995 | 0.951 |
| CC(C)CC(NC(=O)C(CCc1ccccc1)NC(=O)CN1CCOCC1)C(=O)NC(Cc1ccccc1)C(=O)NC(CC(C)C)C(=O)C1(C)CO1 (stereo not given) [Carfilzomib] | 1.02 | 0.882 | 0.128 | 0.113 | 0.13 | 1.02 | 0.883 | 0.531 | 0.572 | 0.543 | 1 | 0.909 | 0.803 | 0.867 | 0.818 |
| CCS(=O)(=O)N1CCN(c2ccc(Nc3ncc(C(N)=O)c(NC4CC4)n3)cc2)CC1 [Cerdulatinib] | 0.846 | 0.868 | 0.898 | 0.941 | 0.775 | 1.03 | 1.02 | 0.925 | 0.858 | 0.921 | 1.04 | 1.09 | 0.975 | 0.903 | 1.07 |
| N.N.[Cl][Pt][Cl] [Cisplatin] | 0.96 | 0.989 | 0.983 | 0.939 | 1.02 | 0.845 | 0.582 | 0.996 | 0.984 | 1.13 | 0.99 | 1.09 | 1.01 | 0.934 | 1.03 |
| O=C(CCCCCCNC(=O)c1cnc(N(c2ccccc2)c2ccccc2Cl)nc1)NO [Citarinostat] | 0.94 | 1.02 | 0.916 | 0.886 | 0.632 | 1.03 | 1.04 | 0.967 | 0.941 | 0.871 | 0.975 | 1 | 0.987 | 0.98 | 0.949 |
